Assay results published in patent publication US8658604B2, “Template-fixed beta-hairpin peptidomimetics with protease inhibitory activity” (Polyphor Ltd, priority 2005, dated 2014).
Where a SMILES comes first, the peptide text is derived from it.

Tests used:
[1] = biological target: Coagulation Factor Xa, from uman plasma (Homo sapiens, UniProt P00742); assay: Enzymatic assay, coagulation factor Xa
HELA cells (Acc57) = assay: Cytotoxicity assay (MTT reduction), HELA cells; format: cell-based; details: Hela cells
Description: The cytotoxicity of the peptides to HELA cells (Acc57) and COS-7 cells (CRL-1651) was determined using the MTT reduction assay [see ref. 2 and 3, below]. Briefly the method was as follows: HELA cells and COS-7 cells were seeded at 7.0×10^3 and, respectively, 4.5×10^3 cells per well and grown in 96-well microtiter plates for 24 hours at 37° C. at 5% CO2. At this point, time zero (Tz) was determined by MTT reduction (see below). The supernatant of the remaining wells was discarded, and fresh medium and the peptides in serial dilutions of 12.5, 25 and 50 μM were pipetted into the wells. Each peptide concentration was assayed in triplicate. Incubation of the cells was continued for 48 hours at 37° C. at 5% CO2. Wells were then washed once with phosphate buffered saline (PBS) and subsequently 100 μl MTT reagent (0.5 mg/ml in medium RPMI1640 and, respectively, DMEM) were added to the wells. This was incubated at 37° C. for 2 hours and subsequently the medium was aspirated and 100 μl isopropanol were added to each well. The absorbance at 595 nm of the solubilized product was measured (OD595peptide). For each concentration averages were calculated from triplicates. The percentage of growth was calculated as follows: (OD595peptide-OD595Tz-OD595Empty well)/(OD595Tz-OD595Empty well)×100% and was plotted for each peptide concentration.
The LC 50 values (Lethal Concentration, defined as the concentration that kills 50% of the cells) were determined for each peptide by using the trend line function of EXCEL (Microsoft Office 2000) for the concentrations (50, 25, 12.5 and 0 μM), the corresponding growth percentages and the value −50, (=TREND(C50:C0,%50:%0,−50)).
The GI 50 (Growth Inhibition) concentrations were calculated for each peptide by using a trend line function for the concentrations (50, 25, 12.5 and 0 μg/ml), the corresponding percentages and the value 50, (=TREND (C50:C0,%50:%0,50).

Chymase, from human skin = biological target: T1, Chymase, from human skin (Homo sapiens, UniProt P23946); assay: Enzymatic assay, chymase
T1 sequence (P23946 22-247): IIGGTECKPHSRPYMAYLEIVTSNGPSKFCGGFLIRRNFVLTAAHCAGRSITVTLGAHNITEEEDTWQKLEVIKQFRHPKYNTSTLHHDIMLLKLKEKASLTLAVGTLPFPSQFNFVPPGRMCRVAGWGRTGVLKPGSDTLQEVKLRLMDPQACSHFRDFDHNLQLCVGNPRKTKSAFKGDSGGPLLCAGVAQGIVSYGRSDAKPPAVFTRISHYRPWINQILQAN

[2] = biological target: Urokinase from human urine (Homo sapiens, UniProt P00749); assay: Enzymatic assay, urokinase
[3] = biological target: T2, Elastase from human neutrophils (Homo sapiens, UniProt P08246); assay: Enzymatic assay, elastase; details: Elastase IC50
T2 sequence (P08246 30-267): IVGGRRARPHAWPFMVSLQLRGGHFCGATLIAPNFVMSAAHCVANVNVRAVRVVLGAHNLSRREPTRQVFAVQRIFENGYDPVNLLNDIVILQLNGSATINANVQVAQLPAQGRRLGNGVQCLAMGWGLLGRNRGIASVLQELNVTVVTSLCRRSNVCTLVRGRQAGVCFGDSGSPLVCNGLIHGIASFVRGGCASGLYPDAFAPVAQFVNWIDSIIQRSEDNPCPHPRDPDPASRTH

[4] = biological target: Trypsin, from human pancreas (Homo sapiens, UniProt P07477); assay: Enzymatic assay, trypsin; details: at 100 μM
[5] = biological target: Chymotrypsin, from human pancreas (Homo sapiens, UniProt P17538); assay: Enzymatic assay, chymotrypsin
[6] = biological target: Thrombin, from Human Plasma (Homo sapiens, UniProt P00734); assay: Enzymatic assay, thrombin
[7] = system: Tryptase, from human lung; assay: Enzymatic assay, tryptase; details: at 100 μM
[8] = biological target: T3, CathepsinG, from human neutrophils (Homo sapiens, UniProt P08311); assay: Enzymatic assay, cathepsin G; details: for IC50: Cathepsin G IC50
T3 sequence (P08311 21-244): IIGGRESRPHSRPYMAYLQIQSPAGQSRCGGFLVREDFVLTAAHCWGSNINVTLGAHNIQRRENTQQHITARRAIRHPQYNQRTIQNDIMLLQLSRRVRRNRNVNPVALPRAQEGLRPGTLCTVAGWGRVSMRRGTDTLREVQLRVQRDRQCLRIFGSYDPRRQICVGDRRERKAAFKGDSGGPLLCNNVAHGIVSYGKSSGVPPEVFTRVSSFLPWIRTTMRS

Sequence of Chymotrypsin, from human pancreas (P17538 19-263): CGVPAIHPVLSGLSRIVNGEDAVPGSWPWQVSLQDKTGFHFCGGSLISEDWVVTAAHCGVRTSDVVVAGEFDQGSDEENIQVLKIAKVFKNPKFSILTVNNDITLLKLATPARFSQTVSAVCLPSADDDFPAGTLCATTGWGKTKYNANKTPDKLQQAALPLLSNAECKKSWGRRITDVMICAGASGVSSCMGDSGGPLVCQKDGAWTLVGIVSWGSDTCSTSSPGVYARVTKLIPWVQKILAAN
Sequence of Coagulation Factor Xa, from uman plasma (P00742 235-488 limits assumed): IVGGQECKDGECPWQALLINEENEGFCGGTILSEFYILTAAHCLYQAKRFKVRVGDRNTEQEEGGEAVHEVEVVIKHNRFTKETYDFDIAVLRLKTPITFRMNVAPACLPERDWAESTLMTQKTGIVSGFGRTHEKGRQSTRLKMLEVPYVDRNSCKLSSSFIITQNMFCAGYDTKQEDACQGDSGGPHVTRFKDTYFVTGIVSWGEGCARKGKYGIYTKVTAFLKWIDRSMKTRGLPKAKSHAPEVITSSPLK
Sequence of Coagulation Factor Xa, from uman plasma (P00742 41-179 limits assumed): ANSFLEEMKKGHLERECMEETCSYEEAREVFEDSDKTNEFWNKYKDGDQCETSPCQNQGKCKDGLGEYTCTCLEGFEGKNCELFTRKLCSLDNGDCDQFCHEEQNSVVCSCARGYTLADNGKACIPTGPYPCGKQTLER

CCCC[C@@H]1NC(=O)[C@@H]2CCCN2C(=O)[C@H]2CCCN2C(=O)[C@H](Cc2ccc(O)cc2)NC(=O)[C@@H]2CSSC[C@H](NC1=O)C(=O)N[C@@H]([C@@H](C)O)C(=O)N[C@@H](C)C(=O)N[C@@H](CO)C(=O)N[C@@H]([C@@H](C)CC)C(=O)N1CCC[C@H]1C(=O)N1CC(NC(=O)c3ccccc3)C[C@H]1C(=O)N[C@@H](CCC(N)=O)C(=O)N2 (single isomer, unassigned) [Ex. 88]
FXa at 100 μM % [1]: 3%
Cytotoxicity LC50/GI50 Hela cells (HELA cells (Acc57)): 73 µM
Chymase at 100 μM % (Chymase, from human skin): 0%
Urokinase at 100 μM % [2]: 96%
IC50 [3]: 0.018 µM
Trypsin at 100 μM % [4]: 6.4%
IC50 [5]: 4.31 µM
Thrombin at 100 μM % [6]: 0.2%
Tryptase at 100 μM % [7]: 0.6%
IC50 [8]: > 100 µM

CCCC[C@@H]1NC(=O)[C@H](C(C)C)NC(=O)[C@H]2CCCN2C(=O)[C@H](Cc2ccc(O)cc2)NC(=O)[C@@H]2CSSC[C@H](NC1=O)C(=O)N[C@@H]([C@@H](C)O)C(=O)N[C@@H](C)C(=O)N[C@@H](CO)C(=O)N[C@@H]([C@@H](C)CC)C(=O)N1CCC[C@H]1C(=O)N1CCC[C@H]1C(=O)N[C@@H](CCC(N)=O)C(=O)N2 [Ex. 125] (HELM PEPTIDE1{[Nle].C.T.A.S.I.P.P.Q.C.Y.[dP].V}$PEPTIDE1,PEPTIDE1,2:R3-10:R3|PEPTIDE1,PEPTIDE1,1:R1-13:R2$$$V2.0)
FXa at 100 μM % [1]: 0%
Cytotoxicity LC50/GI50 Hela cells (HELA cells (Acc57)): 37 µM
Chymase at 100 μM % (Chymase, from human skin): 4.8%
IC50 [3]: 0.015 µM
Trypsin at 100 μM % [4]: 28.3%
IC50 [5]: > 20 µM
Thrombin at 100 μM % [6]: 0%
IC50 [8]: 18.3 µM

CCCCCC[C@@H]1NC(=O)[C@@H]2CCCN2C(=O)[C@H]2CCCN2C(=O)[C@H](Cc2ccc(O)cc2)NC(=O)[C@@H]2CSSC[C@H](NC1=O)C(=O)N[C@@H]([C@@H](C)O)C(=O)N[C@@H](C)C(=O)N[C@@H](CO)C(=O)N[C@@H]([C@@H](C)CC)C(=O)N1CCC[C@H]1C(=O)N1CCC[C@H]1C(=O)N[C@@H](CCC(N)=O)C(=O)N2 [Ex. 99] (HELM PEPTIDE1{[CCCCCC[C@H](N[*:1])C(=O)[*:2]].C.T.A.S.I.P.P.Q.C.Y.[dP].P}$PEPTIDE1,PEPTIDE1,2:R3-10:R3|PEPTIDE1,PEPTIDE1,1:R1-13:R2$$$V2.0)
FXa at 100 μM % [1]: 0%
Cytotoxicity LC50/GI50 Hela cells (HELA cells (Acc57)): 58 µM
Chymase at 100 μM % (Chymase, from human skin): 0%
Urokinase at 100 μM % [2]: 17.4%
IC50 [3]: 0.016 µM
Trypsin at 100 μM % [4]: 30.5%
IC50 [5]: 8.56 µM
Thrombin at 100 μM % [6]: 0%
Tryptase at 100 μM % [7]: 0%
IC50 [8]: 85.2 µM

CCCC[C@@H]1NC(=O)[C@@H]2CCCN2C(=O)[C@H]2CCCN2C(=O)[C@H](Cc2ccccc2Cl)NC(=O)[C@@H]2CSSC[C@H](NC1=O)C(=O)N[C@@H]([C@@H](C)O)C(=O)N[C@@H](C)C(=O)N[C@@H](CO)C(=O)N[C@@H]([C@@H](C)CC)C(=O)N1CCC[C@H]1C(=O)N1CCC[C@H]1C(=O)N[C@@H](CCC(N)=O)C(=O)N2 [Ex. 96] (HELM PEPTIDE1{[Nle].C.T.A.S.I.P.P.Q.C.[O=C([C@H](Cc1ccccc1Cl)N[*:1])[*:2]].[dP].P}$PEPTIDE1,PEPTIDE1,2:R3-10:R3|PEPTIDE1,PEPTIDE1,1:R1-13:R2$$$V2.0)
FXa at 100 μM % [1]: 0%
Cytotoxicity LC50/GI50 Hela cells (HELA cells (Acc57)): 52 µM
Chymase at 100 μM % (Chymase, from human skin): 0%
Urokinase at 100 μM % [2]: 6.2%
IC50 [3]: 0.015 µM
Trypsin at 100 μM % [4]: 7.5%
IC50 [5]: 15.4 µM
Thrombin at 100 μM % [6]: 3.6%
Tryptase at 100 μM % [7]: 0%
IC50 [8]: 21.2 µM

CCCC[C@@H]1NC(=O)[C@@H]2CCCN2C(=O)[C@H]2CCCN2C(=O)[C@H](Cc2ccc3ccccc3c2)NC(=O)[C@@H]2CSSC[C@H](NC1=O)C(=O)N[C@@H]([C@@H](C)O)C(=O)N[C@@H](C)C(=O)N[C@@H](CO)C(=O)N[C@@H]([C@@H](C)CC)C(=O)N1CCC[C@H]1C(=O)N1CCC[C@H]1C(=O)N[C@@H](CCC(N)=O)C(=O)N2 [Ex. 95] (HELM PEPTIDE1{[Nle].C.T.A.S.I.P.P.Q.C.[O=C([C@H](Cc1ccc2ccccc2c1)N[*:1])[*:2]].[dP].P}$PEPTIDE1,PEPTIDE1,2:R3-10:R3|PEPTIDE1,PEPTIDE1,1:R1-13:R2$$$V2.0)
FXa at 100 μM % [1]: 11.3%
Cytotoxicity LC50/GI50 Hela cells (HELA cells (Acc57)): 89 µM
Chymase at 100 μM % (Chymase, from human skin): 0%
Urokinase at 100 μM % [2]: 10.3%
IC50 [3]: 0.024 µM
Trypsin at 100 μM % [4]: 8.9%
IC50 [5]: 33.7 µM
Thrombin at 100 μM % [6]: 0%
Tryptase at 100 μM % [7]: 0%
IC50 [8]: 38.7 µM

CCCC[C@@H]1NC(=O)[C@@H]2CCCN2C(=O)[C@H]2CCCN2C(=O)[C@H](Cc2ccc(O)cc2)NC(=O)[C@@H]2CSSC[C@H](NC1=O)C(=O)N[C@@H]([C@@H](C)O)C(=O)N[C@@H](C)C(=O)N[C@@H](CO)C(=O)N[C@@H](CC1CCCCC1)C(=O)N1CCC[C@H]1C(=O)N1CCC[C@H]1C(=O)N[C@@H](CCC(N)=O)C(=O)N2 [Ex. 141] (HELM PEPTIDE1{[Nle].C.T.A.S.[Cha].P.P.Q.C.Y.[dP].P}$PEPTIDE1,PEPTIDE1,2:R3-10:R3|PEPTIDE1,PEPTIDE1,1:R1-13:R2$$$V2.0)
FXa at 100 μM % [1]: 15.3%
Cytotoxicity LC50/GI50 Hela cells (HELA cells (Acc57)): 56 µM
Chymase at 100 μM % (Chymase, from human skin): 0%
Trypsin at 100 μM % [4]: 0%
Chymotrypsin at 100 μM % ([5]; at 100 μM): 72.9%
Thrombin at 100 μM % [6]: 0%
Tryptase At 100 μM % [7]: 44.5%
Cathepsin G at 100 μM % ([8]; at 100 μM): 63.4 at 100%

CCCC[C@@H]1NC(=O)[C@@H]2CCCN2C(=O)[C@H]2CCCN2C(=O)[C@H](CCC(N)=O)NC(=O)[C@@H]2CSSC[C@H](NC1=O)C(=O)N[C@@H]([C@@H](C)O)C(=O)N[C@@H](C)C(=O)N[C@@H](CO)C(=O)N[C@@H]([C@@H](C)CC)C(=O)N1CCC[C@H]1C(=O)N1CCC[C@H]1C(=O)N[C@@H](CCC(N)=O)C(=O)N2 [Ex. 91] (HELM PEPTIDE1{[Nle].C.T.A.S.I.P.P.Q.C.Q.[dP].P}$PEPTIDE1,PEPTIDE1,2:R3-10:R3|PEPTIDE1,PEPTIDE1,1:R1-13:R2$$$V2.0)
FXa at 100 μM % [1]: 19.4%
Cytotoxicity LC50/GI50 Hela cells (HELA cells (Acc57)): 79 µM
Chymase at 100 μM % (Chymase, from human skin): 4.7%
IC50 [3]: 0.028 µM
Trypsin at 100 μM % [4]: 0%
IC50 [5]: 48.1 µM
Thrombin at 100 μM % [6]: 13.5%
Cathepsin G at 100 μM % ([8]; at 100 μM (stated in cell instead of IC50)): 45 at 100%
